# Legend:
# Assay type in all cases: in vivo, human
# [1] = test system: Subjects Having Insomnia Disorder; assay: Example 1: Insomnia Severity Index Total Score (Items 1-7)
# Source text: As used herein, the term “Insomnia Severity Index”, abbreviated as “ISI”, is an index calculated using a 7-item, self-report questionnaire assessing the nature, severity, and impact of insomnia (see Bastien, C. H., et al. “Validation of the Insomnia Severity Index as an outcome measure for insomnia research.” Sleep Med. 2001; 2(4): 297-307). The questionnaire evaluates: (1) severity of sleep onset; (2) sleep maintenance; (3) early morning awakening problems; (4) sleep dissatisfaction; (5) interference caused by sleep difficulties with daytime functioning; (6) noticeability of sleep problems by others; and (7) distress caused by the sleep difficulties. A 5-point scale is used to rate each item (0=no problem to 4=very severe problem) yielding a total score from 0 to 28. Total ISI score (items (1)-(7)) and daytime functioning (items (4)-(7)) are analyzed separately.
# Month 1 Assessment: Standard safety assessments were performed on the subject. A blood sample was collected for determination of plasma concentration of lemborexant and its metabolites, and the ISI, FSS, PGI-Insomnia, EQ-5D-3L, and eC-SSR were completed.
# Month 3 Assessment: All assessments conducted at the Month 1 Assessment were repeated.
# Month 6 Assessment: All assessments conducted at the Month 1 Assessment were repeated, and subjects completed the WPAI-GH.
# [2] = test system: Subjects Having Insomnia Disorder; assay: Example 1: Morning Sleepiness rating (scale 1 to 9); conditions: for Morning Sleepiness score, Mean (SD): Baseline; for Morning Sleepiness score, Treatment difference (vs placebo): change from baseline at Month 6
# Source text: In some embodiments, sleep diaries were used to assess sleep parameters reported by subjects (i.e., subjective assessments) including subjective sleep onset latency (sSOL), subjective sleep efficiency (sSE), subjective WASO (sWASO), and subjective total sleep time (sTST). Subjects were instructed to complete the Sleep Diary developed based on the consensus Sleep Diary as described in Carney et al., “The consensus sleep diary: standardizing prospective sleep self-monitoring,” Sleep 2012; 35(2):287-302. In some embodiments, the Sleep Diary was used to assess the subject's global perception of quality of sleep on the previous night with the following question: “How would you rate the quality of your sleep last night?” Subjects rated the quality of their sleep on a scale from 1 to 9, with 1 being extremely poor and 9 being extremely good. In some embodiments, the Sleep Diary was used to assess subjective ratings of morning sleepiness with the following question: “How alert/sleepy do you feel this morning?” Subjects rated their sleepiness/alertness level on a Likert scale from 1 to 9, with 1 being extremely sleepy and 9 being extremely alert.
# Treatment period 1 began with the first dose of randomized study medication (placebo, 5 mg of lemborexant, or 10 mg of lemborexant). Subjects completed sleep diaries daily in the morning, within one hour of waketime. The subjects were assessed by a clinician one month, two months, three months, and six months after initiation of Treatment period 1.
# [3] = test system: Subjects Having Insomnia Disorder; assay: Example 3: proportion of subjects whose ISI Total Score decreased by 7 or more points (pooled); conditions: for percentage of subjects whose ISI Total Score decreased by 7 or more points: end of month 1, pooled Examples 1 and 2; for Total Insomnia Severity Index Score Decreased by ≥7 Points, Difference of proportion vs. Placebo / Total Insomnia Severity Index Score Decreased from Baseline to Month 1 by ≥7 Points, Responder No, n (%) / Total Insomnia Severity Index Score Decreased from Baseline to Month 1 by ≥7 Points, Responder Yes, n (%): Month 1
# Description: The data collected in studies described in Example 1 and Example 2 were pooled and the response of each subject was analyzed.
# Table 32 provides the summary and analysis of responders, defined as those subjects whose Total ISI Score decreased at the end of month 1 by 7 or more points compared to baseline. Table 33 provides the summary and analysis of responders, defined as those subjects whose ISI Total Score decreased compared to baseline and was less than 10 at month 1.
smiles,measurement,setting,value
"Cc1ncc(OC[C@@]2(c3cccc(F)c3)C[C@H]2C(=O)Nc2ccc(F)cn2)c(C)n1 [Lemborexant, (1R,2S)-2-(((2,4-dimethylpyrimidin-5-yl)oxy)methyl)-2-(3-fluorophenyl)-N-(5-fluoropyridin-2-yl)cyclopropanecarboxamide]",insomnia severity index score compared with placebo,"[1]; 5 mg and 10 mg, at the equivalent timepoint (Tables 6 and 7: daytime functioning and total score)",greater decrease in insomnia severity index score than subjects treated with placebo
same,"ISI Total Score (Items 1-7), Mean","[1]; 5 mg, Month 1",12.6
same,"ISI Total Score (Items 1-7), Median","[1]; 5 mg, Month 1",12.0
same,"ISI Total Score (Items 1-7), Mean","[1]; 5 mg, Month 3",10.8
same,"ISI Total Score (Items 1-7), Median","[1]; 5 mg, Month 3",10.0
same,"ISI Total Score (Items 1-7), Mean","[1]; 5 mg, Month 6",9.6
same,"ISI Total Score (Items 1-7), Median","[1]; 5 mg, Month 6",9.0
same,"ISI Total Score (Items 1-7), Mean","[1]; 5 mg, Study Baseline",19.6
same,"ISI Total Score (Items 1-7), Median","[1]; 5 mg, Study Baseline",19.0
same,"ISI Total Score Change from Study Baseline, Mean","[1]; 5 mg, after 1 Month",−7.1
same,"ISI Total Score Change from Study Baseline, Median","[1]; 5 mg, after 1 Month",−6.0
same,"ISI Total Score Change from Study Baseline, Mean","[1]; 5 mg, after 3 Months",−8.6
same,"ISI Total Score Change from Study Baseline, Median","[1]; 5 mg, after 3 Months",−8.0
same,"ISI Total Score Change from Study Baseline, Mean","[1]; 5 mg, after 6 Months",−9.9
same,"ISI Total Score Change from Study Baseline, Median","[1]; 5 mg, after 6 Months",−10.0
same,ISI Total Score LSM treatment difference: Lemborexant/Placebo,"[1]; 5 mg, change from Study Baseline after 1 Month",−1.47
same,ISI Total Score LSM treatment difference: Lemborexant/Placebo,"[1]; 5 mg, change from Study Baseline after 3 Months",−2.02
same,ISI Total Score LSM treatment difference: Lemborexant/Placebo,"[1]; 5 mg, change from Study Baseline after 6 Months",−2.10
same,"ISI Total Score (Items 1-7), Mean","[1]; 10 mg, Month 1",12.0
same,"ISI Total Score (Items 1-7), Median","[1]; 10 mg, Month 1",12.0
same,"ISI Total Score (Items 1-7), Mean","[1]; 10 mg, Month 3",10.2
same,"ISI Total Score (Items 1-7), Median","[1]; 10 mg, Month 3",10.0
same,"ISI Total Score (Items 1-7), Mean","[1]; 10 mg, Month 6",9.4
same,"ISI Total Score (Items 1-7), Median","[1]; 10 mg, Month 6",9.0
same,"ISI Total Score (Items 1-7), Mean","[1]; 10 mg, Study Baseline",19.0
same,"ISI Total Score (Items 1-7), Median","[1]; 10 mg, Study Baseline",19.0
same,"ISI Total Score Change from Study Baseline, Mean","[1]; 10 mg, after 1 Month",−7.2
same,"ISI Total Score Change from Study Baseline, Median","[1]; 10 mg, after 1 Month",−6.0
same,"ISI Total Score Change from Study Baseline, Mean","[1]; 10 mg, after 3 Months",−8.9
same,"ISI Total Score Change from Study Baseline, Median","[1]; 10 mg, after 3 Months",−9.0
same,"ISI Total Score Change from Study Baseline, Mean","[1]; 10 mg, after 6 Months",−9.8
same,"ISI Total Score Change from Study Baseline, Median","[1]; 10 mg, after 6 Months",−9.5
same,ISI Total Score LSM treatment difference: Lemborexant/Placebo,"[1]; 10 mg, change from Study Baseline after 1 Month",−1.87
same,ISI Total Score LSM treatment difference: Lemborexant/Placebo,"[1]; 10 mg, change from Study Baseline after 3 Months",−2.57
same,ISI Total Score LSM treatment difference: Lemborexant/Placebo,"[1]; 10 mg, change from Study Baseline after 6 Months",−2.35
same,"Morning Sleepiness score, Mean (SD)",[2]; 5 mg,3.93 (1.35)
same,"Morning Sleepiness score, Treatment difference (vs placebo)",[2]; 5 mg,0.15
same,"Morning Sleepiness score, Mean (SD)",[2]; 10 mg,3.93 (1.32)
same,"Morning Sleepiness score, Treatment difference (vs placebo)",[2]; 10 mg,0.26
same,morning sleepiness compared with placebo,[2]; at 6 months (Table 8),significantly improved
same,percentage of subjects whose ISI Total Score decreased by 7 or more points,[3]; 5 mg,47.3%
same,percentage of subjects whose ISI Total Score decreased by 7 or more points,[3]; 10 mg,47.8%
same,"Total Insomnia Severity Index Score Decreased by ≥7 Points, Difference of proportion vs. Placebo",[3]; Lemborexant 5 mg,13.12
same,"Total Insomnia Severity Index Score Decreased from Baseline to Month 1 by ≥7 Points, Responder No, n (%)",[3]; Lemborexant 5 mg,283 (48.6) n (%)
same,"Total Insomnia Severity Index Score Decreased from Baseline to Month 1 by ≥7 Points, Responder Yes, n (%)",[3]; Lemborexant 5 mg,275 (47.3) n (%)
same,"Total Insomnia Severity Index Score Decreased by ≥7 Points, Difference of proportion vs. Placebo",[3]; Lemborexant 10 mg,13.61
same,"Total Insomnia Severity Index Score Decreased from Baseline to Month 1 by ≥7 Points, Responder No, n (%)",[3]; Lemborexant 10 mg,261 (44.7) n (%)
same,"Total Insomnia Severity Index Score Decreased from Baseline to Month 1 by ≥7 Points, Responder Yes, n (%)",[3]; Lemborexant 10 mg,279 (47.8) n (%)
same,difference of proportion of responders (ISI Total Score decreased by 7 or more points) versus placebo,"[3]; both doses, month 1 (Table 32)",statistically significant

# Source: patent publication US20220305012A1, “L[…] TREATING SLEEP ISSUES” (EISAI R&D MANAGEMENT CO., LTD., priority 2019, published 2022)
